Source: US20260262643A1, “HERBICIDAL BENZOXAZINES” (FMC CORPORATION, priority 2022, published 2026)
Like-named read-outs stand apart in the source and are kept apart here.

Columns and labels:
soybean = assay: Test A preemergence; assay type: in vivo, Glycine max; conditions: Glycine max, pre-emergence, 240 h, read-out: Plant response rating, Soybean; for plant injury at 125 g/ha: 125 g ai/ha; for plant injury at 500 g/ha: 500 g ai/ha
Method in brief: (§1)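 Plants were grown in loam and sand and treated preemergence or postemergence (one- to two-leaf stage, 2–10 cm) with compound in solvent plus surfactant. Response was scored against untreated controls after 10 greenhouse days, where 0 means no effect and 100 complete control.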

blackgrass [1] = assay: Test A postemergence; assay type: in vivo, Alopecurus myosuroides; conditions: Alopecurus myosuroides, post-emergence, 240 h, postemergence, 10 days, 0 to 100 scale (0 no effect, 100 complete control); for pest or weed control at 125 g/ha: 125 g ai/ha, read-out: Blackgrass plant response rating; for pest or weed control at 500 g/ha: 500 g ai/ha, visual injury, read-out: Plant response rating, Blackgrass
Method in brief: as §1

ducksalad = assay: Test B flooded paddy test; assay type: in vivo, Heteranthera limosa; conditions: Heteranthera limosa, 312 h, 250 g ai/ha, Flood, 13 days, 0 to 100 scale (0 no effect, 100 complete control); read-out: Plant response rating, Ducksalad
Method in brief: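 Application into standing water (3 cm above soil) at the two-leaf stage; flood depth held constant. Evaluation: day 13, visual comparison with controls, 0 = no injury, 100 = complete control.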

pigweed, palmer [2] = assay: Test A postemergence; assay type: in vivo, Amaranthus palmeri; conditions: Amaranthus palmeri, post-emergence, 240 h, postemergence, 10 days, 0 to 100 scale (0 no effect, 100 complete control); for pest or weed control at 125 g/ha: 125 g ai/ha, read-out: Pigweed, Palmer plant response rating; for pest or weed control at 500 g/ha: 500 g ai/ha, visual injury, read-out: Plant response rating, Pigweed, Palmer
Method in brief: as §1

blackgrass [3] = assay: Test A preemergence; assay type: in vivo, Alopecurus myosuroides; conditions: Alopecurus myosuroides, pre-emergence, 240 h, read-out: Plant response rating, Blackgrass; for pest or weed control at 125 g/ha: 125 g ai/ha; for pest or weed control at 500 g/ha: 500 g ai/ha
Method in brief: as §1

ragweed [4] = assay: Test A preemergence; assay type: in vivo, Ambrosia artemisiifolia; conditions: Ambrosia artemisiifolia, pre-emergence, 240 h, read-out: Plant response rating, Ragweed; for pest or weed control at 125 g/ha: 125 g ai/ha; for pest or weed control at 500 g/ha: 500 g ai/ha
Method in brief: as §1

oat, wild = assay: Test A postemergence; assay type: in vivo, Avena fatua; conditions: Avena fatua, post-emergence, 240 h, postemergence, 10 days, 0 to 100 scale (0 no effect, 100 complete control); for pest or weed control at 125 g/ha: 125 g ai/ha, read-out: Oat, Wild plant response rating; for pest or weed control at 500 g/ha: 500 g ai/ha, visual injury, read-out: Plant response rating, Oat, Wild
Method in brief: as §1

ragweed [5] = assay: Test A postemergence; assay type: in vivo, Ambrosia artemisiifolia; conditions: Ambrosia artemisiifolia, post-emergence, 240 h, postemergence, 10 days, 0 to 100 scale (0 no effect, 100 complete control); for pest or weed control at 125 g/ha: 125 g ai/ha, read-out: Ragweed plant response rating; for pest or weed control at 500 g/ha: 500 g ai/ha, visual injury, read-out: Plant response rating, Ragweed
Method in brief: as §1

goosegrass = assay: Test A postemergence; assay type: in vivo, Eleusine indica; conditions: Eleusine indica, post-emergence, 240 h, postemergence, 10 days, 0 to 100 scale (0 no effect, 100 complete control); for pest or weed control at 125 g/ha: 125 g ai/ha, read-out: Goosegrass plant response rating; for pest or weed control at 500 g/ha: 500 g ai/ha, visual injury, read-out: Plant response rating, Goosegrass
Method in brief: as §1

corn = assay: Test A postemergence; assay type: in vivo, Zea mays; conditions: Zea mays, post-emergence, 240 h, postemergence, 10 days, 0 to 100 scale (0 no effect, 100 complete control); for plant injury at 125 g/ha: 125 g ai/ha, read-out: Corn plant response rating; for Corn plant response rating (crop injury, 0 = no effect, 100 = complete kill) at 500 g/ha: 500 g ai/ha, visual injury
Method in brief: as §1

pigweed, palmer [6] = assay: Test A preemergence; assay type: in vivo, Amaranthus palmeri; conditions: Amaranthus palmeri, pre-emergence, 240 h, read-out: Plant response rating, Pigweed, Palmer; for pest or weed control at 125 g/ha: 125 g ai/ha; for pest or weed control at 500 g/ha: 500 g ai/ha
Method in brief: as §1

ryegrass, Italian = assay: Test A preemergence; assay type: in vivo, Lolium multiflorum; conditions: Lolium multiflorum, pre-emergence, 240 h, read-out: Plant response rating, Ryegrass, Italian; for pest or weed control at 125 g/ha: 125 g ai/ha; for pest or weed control at 500 g/ha: 500 g ai/ha
Method in brief: as §1

wheat = assay: Test A postemergence; assay type: in vivo, Triticum aestivum; conditions: Triticum aestivum, post-emergence, 240 h, postemergence, 10 days, 0 to 100 scale (0 no effect, 100 complete control); for plant injury at 125 g/ha: 125 g ai/ha, read-out: Wheat plant response rating; for plant injury at 500 g/ha: 500 g ai/ha, visual injury, read-out: Plant response rating, Wheat
Method in brief: as §1

foxtail, giant = assay: Test A postemergence; assay type: in vivo, Setaria faberi; conditions: Setaria faberi, post-emergence, 240 h, postemergence, 10 days, 0 to 100 scale (0 no effect, 100 complete control); for pest or weed control at 125 g/ha: 125 g ai/ha, read-out: Foxtail, Giant plant response rating; for pest or weed control at 500 g/ha: 500 g ai/ha, visual injury, read-out: Plant response rating, Foxtail, Giant
Method in brief: as §1

[7] = visual injury after 10 days, 0 to 100 scale, 0 is no effect, 100 is complete control
[8] = 0 to 100 scale (0 no effect, 100 complete control), 10 days

SMILES: Cc1cccc2c1O[C@@H](C)CN2C(=O)c1cccc(-n2cn[nH]c2=O)c1 [Compound 122, 4-[3-[[(2S)-2,3-Dihydro-2,8-dimethyl-4H-1,4-benzoxazin-4-yl]carbonyl]phenyl]-2,4-dihydro-3H-1,2,4-triazol-3-one]
- plant injury at 125 g/ha (soybean; [7]): 0%
- plant injury at 500 g/ha (soybean; [7]): 0%
- pest or weed control at 125 g/ha (blackgrass [1]): 0%
- pest or weed control at 500 g/ha (blackgrass [1]): 50%
- pest or weed control at 250 g/ha (ducksalad): 0%
- pest or weed control at 125 g/ha (pigweed, palmer [2]): 20%
- pest or weed control at 500 g/ha (pigweed, palmer [2]): 20%
- pest or weed control at 125 g/ha (blackgrass [3]; [7]): 10%
- pest or weed control at 500 g/ha (blackgrass [3]; [7]): 50%
- pest or weed control at 125 g/ha (ragweed [4]; [7]): 0%
- pest or weed control at 500 g/ha (ragweed [4]; [7]): 0%
- pest or weed control at 125 g/ha (oat, wild): 0%
- pest or weed control at 500 g/ha (oat, wild): 20%
- pest or weed control at 125 g/ha (ragweed [5]): 0%
- pest or weed control at 500 g/ha (ragweed [5]): 0%
- pest or weed control at 125 g/ha (goosegrass): 0%
- pest or weed control at 500 g/ha (goosegrass): 60%
- plant injury at 125 g/ha (corn): 10%
- Corn plant response rating (crop injury, 0 = no effect, 100 = complete kill) at 500 g/ha (corn): 60%
- pest or weed control at 125 g/ha (pigweed, palmer [6]; [7]): 0%
- pest or weed control at 500 g/ha (pigweed, palmer [6]; [7]): 30%
- pest or weed control at 125 g/ha (ryegrass, Italian; [7]): 20%
- pest or weed control at 500 g/ha (ryegrass, Italian; [7]): 70%
- plant injury at 125 g/ha (wheat): 10%
- plant injury at 500 g/ha (wheat): 10%
- pest or weed control at 125 g/ha (foxtail, giant): 20%
- pest or weed control at 500 g/ha (foxtail, giant): 50%

SMILES: CCc1ccc(-n2cnc(C(C)C)n2)cc1C(=O)N1C[C@H](C)Oc2c(Cl)cccc21 [Compound 94, [(2S)-8-Chloro-2,3-dihydro-2-methyl-4H-1,4-benzoxazin-4-yl][2-ethyl-5-[3-(1-methylethyl)-1H-1,2,4-triazol-1-yl]phenyl]methanone]
- plant injury at 125 g/ha (soybean; [7]): 50%
- plant injury at 500 g/ha (soybean; [8]): 100%
- pest or weed control at 125 g/ha (blackgrass [1]): 60%
- pest or weed control at 500 g/ha (blackgrass [1]): 90%
- pest or weed control at 250 g/ha (ducksalad): 70%
- pest or weed control at 125 g/ha (pigweed, palmer [2]): 90%
- pest or weed control at 500 g/ha (pigweed, palmer [2]): 90%
- pest or weed control at 125 g/ha (blackgrass [3]; [7]): 90%
- pest or weed control at 500 g/ha (blackgrass [3]; [8]): 90%
- pest or weed control at 125 g/ha (ragweed [4]; [7]): 0%
- pest or weed control at 500 g/ha (ragweed [4]; [8]): 0%
- pest or weed control at 125 g/ha (oat, wild): 80%
- pest or weed control at 500 g/ha (oat, wild): 80%
- pest or weed control at 125 g/ha (ragweed [5]): 50%
- pest or weed control at 500 g/ha (ragweed [5]): 50%
- pest or weed control at 125 g/ha (goosegrass): 60%
- pest or weed control at 500 g/ha (goosegrass): 90%
- plant injury at 125 g/ha (corn): 80%
- Corn plant response rating (crop injury, 0 = no effect, 100 = complete kill) at 500 g/ha (corn): 90%
- pest or weed control at 125 g/ha (pigweed, palmer [6]; [7]): 100%
- pest or weed control at 500 g/ha (pigweed, palmer [6]; [8]): 100%
- pest or weed control at 125 g/ha (ryegrass, Italian; [7]): 90%
- pest or weed control at 500 g/ha (ryegrass, Italian; [8]): 100%
- plant injury at 125 g/ha (wheat): 30%
- plant injury at 500 g/ha (wheat): 70%
- pest or weed control at 125 g/ha (foxtail, giant): 90%
- pest or weed control at 500 g/ha (foxtail, giant): 90%
